{"source": "paper PMC8160450", "about": "“GRK Inhibition Potentiates Glucagon-Like Peptide-1 Action” (Frontiers in Endocrinology, 2021)", "format_in_all_cases": "cell-based", "key": {"[1]": {"system": "β-arrestin recruitment to the GLP-1R", "assay": "GLP-1 mediated β-arrestin recruitment assay (PathHunter eXpress GLP1R CHO-K1 β-Arrestin cells)", "settings": "CHO-K1 cells stably expressing human GLP-1 receptor and β-arrestin", "method": "PathHunter® eXpress GLP1R CHO-K1 β-Arrestin cells were plated at 6000 cells/well in a 384-well, PDL, white and opaque plate in F12 medium containing 10% FBS, 0.3 mg/ml hygromycin, and 0.8 mg/ml G418. The plate was incubated for two days in a humidified incubator at 37°C and 5% CO2 prior to the experiment. On the day of the exeperiment, the cells were washed once with the Assay Buffer (HBSS with calcium and magnesium, 20 mM Hepes, and 0.1% fatty-acid free BSA) followed by a 10 minute preincubation with GRK inhibitors or vehicle (DMSO) at the indicated concentrations. The final DMSO concentration was 0.1%. GLP-1 was added to the indicated concentrations, and incubation was continued for an additional 90 minutes at 37°C. The detection reagent was then added the cells, followed by a 60 minute incubation at the room temperature. The plate was read on MicroBeta LumiJet (PerkinElmer, Waltham, MA). In this cellular system, the GLP-1 receptor is fused in frame with the small enzyme fragment of ProLinkTM and co-expressed in cells expressing a fusion of the larger deletion mutant of β-gal, also called enzyme acceptor. […] The cellular β-gal enzyme activity is measured using chemiluminescent detection reagents."}, "INS-1 832/13 cells": {"system": "INS-1 832/13 cells", "assay": "GLP-1 mediated insulin secretion in INS-1 832/13 cells", "settings": "GLP-1 at 10 nM, 5 mM glucose", "method": "INS-1 832/13 cells were cultured in medium composed of RPMI 1640 medium supplemented with 10% fetal bovine serum, 50 IU/mL penicillin, 50 mg/L streptomycin, 10 mM HEPES, 2 mM L-glutamine, 1 mM sodium pyruvate, and 50 µM beta-mercaptoethanol. Cells were split twice a week, grown in a 37°C incubator under a humidified atmosphere containing 5% CO2 and plated at (60,000 cells/well) in a 96-well plate, two days prior to the experiment. Cells were washed twice with glucose-free Krebs-Ringer Bicarbonate buffer (KRB) (116 mM NaCl, 1.8 mM CaCl2, 0.8 mM MgSO4, 5.4 mM KCl, 1 mM NaH2PO4, 26 mM NaHCO3, and 0.2% fatty-acid free BSA, pH 7.4) followed by preincubation for 1 h at 37°C in glucose-free KRB and the indicated concentration of GRK compounds or vehicle (DMSO) were added. The final DMSO concentration was 0.1%. After 30 min incubation at 37°C, 2 mM or 5 mM glucose and 10 nM GLP-1 were added to the wells for a final volume of 200 μL. After further incubation for 1 hour at 37°C, 20 μL of the culture supernatant was diluted 1:15 in the Dilution Buffer provided in the Insulin High Range Assay HTRF Kit (Cisbio, Bedford, MA). Insulin was detected using the Insulin High Range Assay HTRF Kit according to the manufacturer’s instructions (Cisbio, Bedford, MA). All results were obtained in 5 replicates."}, "mouse pancreatic islets": {"system": "mouse pancreatic islets", "assay": "Glucose stimulated insulin secretion (GSIS) in isolated mouse pancreatic islets", "settings": "20 nM GLP-1, 2 mM glucose", "method": "Islets were isolated from mouse pancreas by collagenase digestion ([20]). The collagenase was dissolved in Hanks’ balanced salt solution (Invitrogen, Carlsbad, CA) containing 10 µg/ml DNase I (Roche Diagnostics, Indianapolis, IN) and 0.2% BSA, and was subsequently injected into the common bile duct. The pancreas was removed and incubated at 37°C for 20 min and washed three times with Hanks’ balanced salt solution and islets were collected under a microscope. Purified islets were used after an overnight incubation in RPMI 1640 medium containing 5.5 mmol/l glucose and 10% fetal bovine serum in a humidified atmosphere containing 5% CO2/95% air at 37°C. A group of 7 islets was preincubated in Krebs Ringer bicarbonate buffer (KRBH) containing 0.2% BSA and 2 mM glucose for 40 min at 37°C. The indicated concentration of GRK compounds or vehicle (DMSO) were added. The final DMSO concentration was 0.1%. After 30 min incubation at 37°C, 2 mM or 10 mM glucose along with 20 nM GLP-1 were added to wells. After further incubation for 1 hour at 37°C with shaking, culture supernatant was collected, and insulin was detected using the Insulin High Range Assay HTRF Kit according to the manufacturer’s instructions (Cisbio, Bedford, MA)."}}, "note": "No end group written: not given here."}
{"substance": "Human GLP-1 (7-36) amide (HAEGTFTSDVSSYLEGQAAKEFIAWLVKGR-NH2; UniProt P01275 98-127, looked up, fragment)", "values": [{"measurement": "EC80 for increase of cellular β-gal enzyme activity (β-arrestin recruitment)", "setting": "[1]", "value": "approximately 100 nM"}, {"measurement": "insulin secretion", "setting": "INS-1 832/13 cells", "value": "stimulated insulin secretion"}, {"measurement": "insulin secretion at 2 mM glucose, GLP-1 alone", "setting": "mouse pancreatic islets", "value": "did not stimulate insulin secretion"}]}
